Experimental data published in patent publication US9834525B2, “Inhibitors of paxillin function and related compositions and methods” (UNIVERSITY OF TENNESSEE RESEARCH FOUNDATION, priority 2015, dated 2017).
Entries after “also recorded” stand apart in the source; their conditions may differ.

Experiments:
[1] = tested on: retinal endothelial cells (REC); test: REC attachment assay; format: cell-based, human; conditions: increasing concentrations (100 nM to 1 μM), six hours
Description: Adhesive interactions with extracellular matrix proteins rely on focal adhesion proteins engaging with integrins to strengthen and maintain cell contacts. In the transwell migration assay system, initial cell-attachment to the porous membrane was relied upon in order to obtain a measure of cells that have migrated through to the underside of the well. Since compound (II-4) was in direct contact with cells prior to being seeded onto the transwell membranes, the potential of compound (II-4) to impede the attachment of RECs to the membranes was investigated. […] However, investigation of integrin-mediated signaling may be of interest to further evaluate and characterize compound (II-4)'s potential role in disrupting cross-talk between growth-factor and integrin-mediated signaling during pathological retinal angiogenesis.
FIG. 19: REC attachment assay. Increasing concentrations of compound (II-4) with suspended RECs were seeded to 96-wells to investigate inhibition of REC-adherence to attachment-factor surfaces. […] (P>0.05; n=8).

[2] = tested on: paxillin (pY118) in OMM 2.5 cells; test: Western blot of pY118 and total paxillin in HGF-treated metastatic UM cells; format: cell-based, human; conditions: HGF-treated OMM 2.5 cells, 4 hrs
Method: REC, Mel 270, OMM 2.5 under Hepatocyte Growth Factor (HGF) or Vascular Endothelial Growth Factor (VEGF) stimulation conditions: Cell lysates were collected in RIPA lysis buffer (50 mM Tris-HCl, pH 7.4, 150 mM NaCl, 2 mM EDTA, 1% Nonidet P-40, 0.1% SDS) with protease 1× inhibitor cocktail (Roche; Indianapolis, Ind.). Lysates were kept on ice and centrifuged at 10,000×g×10 minutes and total protein was measured using the BCA assay (Pierce, Rockford, Ill.). Protein samples were mixed with 4×LDS loading buffer with 2.5% 2-mercaptoethanol (Sigma-Aldrich), heated to 70° C. for 10 minutes, and loaded on NuPAGE 4-12% Bis-Tris gel (Invitrogen, Carlsbad, Calif.). […] Dual-channel infrared scan and quantitation of immunoblots were conducted using the ODYSSEY Sa infrared imaging system with Image Studio (Ver. 3.1.4) (LI-COR).
Immune studies of the α4β1 integrins (VCAM-1 and VLA-4) show high affinity α4 integrins may initiate signaling cascades through paxillin that regulate leukocytes migration to inflammation sites. […] The levels of total paxillin and pY118 were measured after activation of metastatic-UM (OMM 2.5) cells with Hepatocyte Growth Factor (HGF) to address in vitro if disruption of α4-downstream signaling through paxillin can affect α4-downstream signaling. […]

92.1 cell line = test: CFSE cellular proliferation, 92.1; format: cell-based, human; conditions: 96 hrs culture, 1 μM for the last 24 hrs
Method: Harvested cells were resuspended at a concentration of 1.0×10^6 cells/mL in warm PBS/1% FBS. Cells were labeled with […] (Invitrogen) for 5 minutes at 37° C. then quenched on cold growth media (final volume 20 mL) for 10 minutes, twice. Cultured unlabeled cells were used as controls.
To test the hypothesis that inhibition of paxillin will reduce cellular proliferation UM cell lines were labeled with carboxyfluorescein succunimidyl ester (CFSE), a cell tracking dye, and cultured for 96 hrs. A group of cells received treatment with compound (II-4) for the last 24 hours. Maximum CFSE fluorescence was controlled using labeled cells prior culture −0 hr. Negative control was established using unlabeled cells cultured in parallel. Histograms in FIG. 15D show 96 hrs cultured cells divided with a 1-log shift or reduction in CFSE intensity. […] Cell proliferation was not affected in the 92.1 cell line. […]
FIG. 15: The paxillin inhibitor Compound (II-4) selectively affects cellular proliferation of primary UM cells that become metastatic. […] Unlabeled cells were used to control fluorescence. […] B. Quantitation of experiment +/−SD including primary UM that becomes metastatic (Mel 270), metastatic (OMM 2.1) and primary (92.1) UM cells. *P=0.0007 and **P=0.0005. […] Quantitation of VLA-4 protein levels +/−SD from n=3. […]

murine OIR model = test: Murine OIR model, retinal whole-mounts; format: in vivo, mouse; conditions: daily ocular administration 0.5 mg/kg or 5 mg/kg in ME, P12 to P17, vs vehicle
Description: Topical delivery of compound (II-4) using an ocular ME was chosen for several reasons. First, intravitreal injection is technically challenging and, unlike intraocular delivery of proteins, is unnecessary for delivery of small molecules. […] The murine OIR model was used to examine the effect of compound (II-4) on the natural history of VEGF-induced proliferative retinopathy. Briefly, pups were exposed to 75% oxygen at post-natal day 7 (P7) for 5 days and then returned to normal oxygen at P12. Mice received daily ocular administration of either compound (II-4) (0.5 mg/kg or 5 mg/kg) or vehicle (ME) from P12 to P17. Eyes were enucleated at P17 and retinal whole-mounts stained for endothelial cells followed by quantification of avascular area and vascular tuft formation.
FIG. 22: Oxygen-Induced Retinopathy (OIR). (A:) P17 retinal whole-mounts were stained for endothelial cells. […] Data represent mean (±SD). N=8-14/group. […] (C): Quantitation of panel A neovascular area. (D): Quantitation of panel A avascular area. (E): Quantitation of panel B total paxillin.

With `COc1cc(C2OC(=O)Nc3c2ccc2ccccc32)cc(OC)c1OC` (centres unmarked) [compound II-4] the “attachment of RECs to attachment-factor coated wells” value [1] was “did not impede the attachment”, the “ratio of pY118 paxillin to total paxillin (pPax:Pax)” value [2] was “dramatically decreased” and the “cell proliferation (CFSE)” value (92.1 cell line) was “not affected”. For the same molecule, the “hypoxia-induced neovascularization (neovascular area)” value (murine OIR model) was “striking inhibition; also recorded: reductions in NV” and the retinal avascular area (murine OIR model) was “modest increase; also recorded: increases in AV”.
